Here are results for seven compounds from PubChem BioAssay AID1259407 (Chemical Carcinogenesis Research Information System (CCRIS), 2018).

The subject of the data set is CCRIS mutagenicity, Ames/micronucleus/aberration tests. The experiment in a line: CCRIS mutagenicity studies.
[1] abbreviates: Test System: AMES SALMONELLA TYPHIMURIUM, Strain/Indicator: TA98, Metabolic Activation: NONE, Method: PREINCUBATION

SMILES strings stand for the structures. Active and inactive are the calls of the source. How the calls were made is not given here.

For `Nc1ccc2ccccc2c1N=Nc1ccc([N+](=O)[O-])cc1`, the mutagenic call runs as follows: (Test System: AMES SALMONELLA TYPHIMURIUM, Strain/Indicator: TA97, Metabolic Activation: HAMSTER, LIVER, S-9, AROCLOR 1254 (10%), Method: PREINCUBATION) “active; positive”; (Test System: AMES SALMONELLA TYPHIMURIUM, Strain/Indicator: TA97, Metabolic Activation: NONE, Method: PREINCUBATION) “active; positive”; (Test System: AMES SALMONELLA TYPHIMURIUM, Strain/Indicator: TA97, Metabolic Activation: RAT, LIVER, S-9, AROCLOR 1254 (10%), Method: PREINCUBATION) “active; positive”; (Test System: AMES SALMONELLA TYPHIMURIUM, Strain/Indicator: TA98, Metabolic Activation: HAMSTER, LIVER, S-9, AROCLOR 1254 (10%), Method: PREINCUBATION) “active; positive”; under setting [1], “active; positive”; (Test System: AMES SALMONELLA TYPHIMURIUM, Strain/Indicator: TA98, Metabolic Activation: RAT, LIVER, S-9, AROCLOR 1254 (10%), Method: PREINCUBATION) “active; positive”. Besides, the mutagenic call was “active; positive” (Test System: AMES SALMONELLA TYPHIMURIUM, Strain/Indicator: TA100, Metabolic Activation: HAMSTER, LIVER, S-9, AROCLOR 1254 (10%), Method: PREINCUBATION); “inactive; negative” (Test System: AMES SALMONELLA TYPHIMURIUM, Strain/Indicator: TA100, Metabolic Activation: NONE, Method: PREINCUBATION); “active; positive” (Test System: AMES SALMONELLA TYPHIMURIUM, Strain/Indicator: TA100, Metabolic Activation: RAT, LIVER, S-9, AROCLOR 1254 (10%), Method: PREINCUBATION); “inactive; negative” (Test System: AMES SALMONELLA TYPHIMURIUM, Strain/Indicator: TA1535, Metabolic Activation: HAMSTER, LIVER, S-9, AROCLOR 1254 (10%), Method: PREINCUBATION); “inactive; negative” (Test System: AMES SALMONELLA TYPHIMURIUM, Strain/Indicator: TA1535, Metabolic Activation: NONE, Method: PREINCUBATION); “inactive; negative” (Test System: AMES SALMONELLA TYPHIMURIUM, Strain/Indicator: TA1535, Metabolic Activation: RAT, LIVER, S-9, AROCLOR 1254 (10%), Method: PREINCUBATION).
For the compound `P`, the mutagenic call was “inactive; negative” (Test System: AMES SALMONELLA TYPHIMURIUM, Strain/Indicator: TA98, Metabolic Activation: NONE, Method: GAS EXPOSURE); “inactive; negative” (Test System: AMES SALMONELLA TYPHIMURIUM, Strain/Indicator: TA98, Metabolic Activation: RAT LIVER S-9, PHENOBARBITAL AND BETA-NAPHTHOFLAVONE, Method: GAS EXPOSURE); “inactive; negative” (Test System: AMES SALMONELLA TYPHIMURIUM, Strain/Indicator: TA100, Metabolic Activation: NONE, Method: GAS EXPOSURE); “inactive; negative” (Test System: AMES SALMONELLA TYPHIMURIUM, Strain/Indicator: TA100, Metabolic Activation: RAT LIVER S-9, PHENOBARBITAL AND BETA-NAPHTHOFLAVONE, Method: GAS EXPOSURE); “inactive; negative” (Test System: AMES SALMONELLA TYPHIMURIUM, Strain/Indicator: TA1535, Metabolic Activation: NONE, Method: GAS EXPOSURE); “inactive; negative” (Test System: AMES SALMONELLA TYPHIMURIUM, Strain/Indicator: TA1535, Metabolic Activation: RAT LIVER S-9, PHENOBARBITAL AND BETA-NAPHTHOFLAVONE, Method: GAS EXPOSURE). Further, the mutagenic call reads like this: (Test System: AMES SALMONELLA TYPHIMURIUM, Strain/Indicator: TA1537, Metabolic Activation: NONE, Method: GAS EXPOSURE) “inactive; negative”; (Test System: AMES SALMONELLA TYPHIMURIUM, Strain/Indicator: TA1537, Metabolic Activation: RAT LIVER S-9, PHENOBARBITAL AND BETA-NAPHTHOFLAVONE, Method: GAS EXPOSURE) “inactive; negative”; (Test System: E.COLI, Strain/Indicator: WP2UVRA, Metabolic Activation: NONE, Method: GAS EXPOSURE) “inactive; negative”; (Test System: E.COLI, Strain/Indicator: WP2UVRA, Metabolic Activation: RAT LIVER S-9, PHENOBARBITAL AND BETA-NAPHTHOFLAVONE, Method: GAS EXPOSURE) “inactive; negative”.
In the case of `Cn1c([N+](=O)[O-])nc2c3cccnc3ccc21`, the mutagenic call runs as follows: (Test System: AMES SALMONELLA TYPHIMURIUM, Strain/Indicator: TA98(1,8-DNP6), Metabolic Activation: NONE, Method: PREINCUBATION) “inactive; negative”; under setting [1], “active; positive”; (Test System: AMES SALMONELLA TYPHIMURIUM, Strain/Indicator: YG1024, Metabolic Activation: NONE, Method: PREINCUBATION) “active; positive”; (Test System: E. COLI, Strain/Indicator: CC109, Metabolic Activation: NONE, Method: STANDARD PLATE) “active; positive”; (Test System: E. COLI, Strain/Indicator: CC109PYG219, Metabolic Activation: NONE, Method: STANDARD PLATE) “active; positive”; (Test System: E. COLI, Strain/Indicator: DJ3107, Metabolic Activation: NONE, Method: STANDARD PLATE) “inactive; negative”. For the same compound, the mutagenic call by setting is: (Test System: E. COLI, Strain/Indicator: DJ3108, Metabolic Activation: NONE, Method: STANDARD PLATE) “active; positive”; (Test System: E. COLI, Strain/Indicator: DJ3109, Metabolic Activation: NONE, Method: STANDARD PLATE) “active; positive”; (Test System: E. COLI, Strain/Indicator: DJ3110, Metabolic Activation: NONE, Method: STANDARD PLATE) “inactive; negative”; (Test System: E. COLI, Strain/Indicator: DJ3111, Metabolic Activation: NONE, Method: STANDARD PLATE) “inactive; negative”; (Test System: E. COLI, Strain/Indicator: DJ3207, Metabolic Activation: NONE, Method: STANDARD PLATE) “inactive; negative”; (Test System: E. COLI, Strain/Indicator: DJ3208, Metabolic Activation: NONE, Method: STANDARD PLATE) “active; positive”. Besides, the mutagenic call reads like this: (Test System: E. COLI, Strain/Indicator: DJ3209, Metabolic Activation: NONE, Method: STANDARD PLATE) “active; positive”; (Test System: E. COLI, Strain/Indicator: DJ3211, Metabolic Activation: NONE, Method: STANDARD PLATE) “inactive; negative”.
`CCCCNNCCCC`: the mutagenic call reads like this: (Test System: AMES SALMONELLA TYPHIMURIUM, Strain/Indicator: TA100, Metabolic Activation: NONE, Method: PREINCUBATION (11 HR GROWTH PERIOD FOR BACTERIA)) “active; positive”; (Test System: AMES SALMONELLA TYPHIMURIUM, Strain/Indicator: TA100, Metabolic Activation: RAT, LIVER, S-9, PCB, Method: PREINCUBATION (11 HR GROWTH PERIOD FOR BACTERIA)) “inactive; negative”; (Test System: AMES SALMONELLA TYPHIMURIUM, Strain/Indicator: TA102, Metabolic Activation: NONE, Method: PREINCUBATION (5 OR 7 HR GROWTH PERIOD FOR BACTERIA)) “active; positive”; (Test System: AMES SALMONELLA TYPHIMURIUM, Strain/Indicator: TA102, Metabolic Activation: RAT, LIVER, S-9, PCB, Method: PREINCUBATION (5 OR 7 HR GROWTH PERIOD FOR BACTERIA)) “active; positive”.
As to `Cc1ccnc2ccccc12`, the mutagenic call (Test System: AMES SALMONELLA TYPHIMURIUM, Strain/Indicator: TA100, Metabolic Activation: RAT, LIVER, S-9, PHENOBARBITAL AND 5,6-BENZOFLAVONE, Method: PREINCUBATION) is “active; positive”; the mutagenic call (Test System: AMES SALMONELLA TYPHIMURIUM, Strain/Indicator: TA100, Metabolic Activation: RAT, LIVER, S-9, PHENOBARBITAL AND 5,6-NAPHTHOFLAVONE, Method: PREINCUBATION) is “active; positive”; the mutagenic call (Test System: AMES SALMONELLA TYPHIMURIUM, Strain/Indicator: TA100, Metabolic Activation: RAT, LIVER, S-9, Method: PREINCUBATION) is “active; positive”; the mutagenic call (Test System: UDS RODENT HEPATOCYTES, Strain/Indicator: THY INCORP (NON-S-PHASE), Metabolic Activation: NONE, Method: AUTORADIOGRAPHY) is “active; positive”.
As to `CCN(CC)CC(=O)Nc1c(C(=O)c2ccccc2F)c(C)nn1C`, the mutagenic call by setting is: (Test System: AMES SALMONELLA TYPHIMURIUM, Strain/Indicator: TA98, Metabolic Activation: RAT, LIVER, S-9, AROCLOR 1254, Method: PREINCUBATION) “active; positive”; (Test System: AMES SALMONELLA TYPHIMURIUM, Strain/Indicator: TA98, Metabolic Activation: RAT, LIVER, S-9, AROCLOR 1254, Method: STANDARD PLATE) “inactive; negative”; (Test System: AMES SALMONELLA TYPHIMURIUM, Strain/Indicator: TA100, Metabolic Activation: RAT, LIVER, S-9, AROCLOR 1254, Method: PREINCUBATION) “active; positive”; (Test System: AMES SALMONELLA TYPHIMURIUM, Strain/Indicator: TA100, Metabolic Activation: RAT, LIVER, S-9, AROCLOR 1254, Method: STANDARD PLATE) “inactive; negative”.
Regarding `CCC1C(=O)O[C@@H]2CCN(C)C/C=C(/COC(=O)[C@](C)(O)[C@H](C)[C@@H]1O)C2=O` (some centres undefined), the mutagenic call (Test System: UDS RAT HEPATOCYTES, Strain/Indicator: THY INCORP, Metabolic Activation: NONE, Method: AUTORADIOGRAPHY) is “active; positive”.
